# From patent US20070010484A1, “Method for treating or inhibiting the effects of injuries or diseases that result in neuronal degeneration and method for promoting neurogenesis” (YEDA RESEARCH AND DEVELOPMENT CO. LTD., priority 2003, published 2007)
# Legend:
# IGF-1 = IGF-1 expression in primary microglial cultures, immunocytochemistry; type: cell-based, C57Bl/6J mice
# Method: Primary microglial culture. Brains from neonatal (P0-P1) C57Bl/6J mice were stripped of their meninges and minced with scissors under a dissecting microscope (Zeiss, Stemi DV4, Germany) in Leibovitz-15 medium (Biological Industries, Beit Ha-Emek, Israel). After trypsinization (0.5% trypsin, 10 min, 37° C./5% CO2), the tissue was triturated. The cell suspension was washed in culture medium for glial cells (DMEM supplemented with 10% fetal calf serum (FCS; Sigma-Aldrich, Rehovot, Israel), 1-glutamine (1 mM), sodium pyruvate (1 mM), penicillin (100 U/ml), and streptomycin ([…])) and cultured at 37° C./5% CO2 in 75-cm2 Falcon tissue-culture flasks (BD Biosciences) coated with poly-D-lysine (PDL) ([…]; Sigma-Aldrich, Rehovot) in borate buffer (2.37 g borax and 1.55 g boric acid dissolved in 500 ml sterile water, pH 8.4) for 1 h, then rinsed thoroughly with sterile, glass-distilled water. Half of the medium was changed after 6 h in culture and every 2nd day thereafter, starting on day 2, for a total culture time of 10-14 days. […]
# [1] = test system: retinal ganglion cells (RGCs); assay: Chronically high intra-ocular pressure (laser-induced glaucoma) rat model, RGC survival; type: in vivo, Lewis rats; conditions: chronic IOP rats
# Excerpt: Induction of chronically high intra-ocular pressure: Blockage of aqueous outflow causes an increase in IOP, which results in RGC death (Schori et al., 2001 and Bakalash et al., 2002). […] The laser beam, which was directed at three of the four episcleral veins and at 270 degrees of the limbal plexus, was applied with a power of 1 watt for 0.2 s, producing a spot size of […] at the episcleral veins and […] at the limbal plexus. At a second laser session 1 week later, the same parameters were used except that the spot size was […] for all applications, this time the radiation was directed towards all four episcleral veins and 360 degrees of the limbal plexus (Schori et al., 2001).
# Anatomical assessment of retinal damage caused by the increase in IOP: The hydrophilic neurotracer dye dextran tetramethylrhodamine (Rhodamine Dextran) (Molecular Probes, Oreg., USA) was applied directly into the intra-orbital portion of the optic nerve. […] RGCs were counted under magnification of ×800 in a Zeiss fluorescent microscope. Four fields from each retina were counted, all with the same diameter (0.076 mm^2) and located at the same distance from the optic disc (Kipnis et al., 2001; and Yoles et al., 2001). […] RGCs were counted by an observer who was blinded to the identity of the retinas. […]
# NF-κB = assay: Western blot of NF-κB in T-cell nuclear extracts; type: cell-based, human; conditions: T cells activated by anti-CD3 Ab
# Method: Western blot analysis of T-cell nuclear extracts. Purified T cells (5×10^6) were preincubated for 2 h with different concentrations of CSPG-DS. The cells were then replated at the same CSPG-DS concentration on 24-well plates pre-coated for 24 h with anti-CD3 mAb. The T cells were lysed in 10 mM HEPES, 1.5 mM MgCl2, 1 mM dithiothreitol, 1 mM PMSF, and 0.5% Nonidet P-40 (buffer A). The lysates were incubated on ice for 10 min and centrifuged at 2000 rpm for 10 min at 4° C. The supernatants (cytoplasmic extracts) were transferred and the pellets (nuclei) were suspended in buffer containing 30 mM HEPES, 450 mM NaCl, 25% glycerol, 0.5 mM EDTA, 6 mM dithiothreitol, 12 mM MgCl2 1 mM PMSF, 10 μg/ml leupeptin, 10 μg/ml pepstatin, and 1% phosphatase inhibitor cocktail (buffer B), and the suspension was incubated on ice for 30 min. The lysates were cleared by centrifugation (30 min, 14×10^3 rpm, 4° C.), and the resulting supernatants were analyzed for protein content. Sample buffer was added, the mixture was boiled, and the samples containing equal amounts of proteins were separated on 10% SDS-PAGE gel and transferred to nitrocellulose membranes. […]
# [2] = test system: delayed-type hypersensitivity response in mice; assay: Delayed-type hypersensitivity (DTH) assay, ear swelling; type: in vivo; conditions: oxazalone-sensitized Balb/c mice, most efficient concentration of 1 μg/ml, relative to untreated
# Method: Assay for delayed-type hypersensitivity. Groups of female inbred Balb/c mice (n=4 per group) were sensitized with 2% oxazalone (100 μl;) dissolved in acetone/olive oil (4:1 (vol/vol)) applied topically on the shaved abdominal skin. A delayed-type hypersensitivity (DTH) response was elicited 5 days later by challenge with 0.5% oxazalone in acetone/olive oil (10 μl applied topically to each side of one ear, and measured with an engineer's micrometer (Mitutoyo, Elk Grove Village, Ill., Tokyo, Japan)). Immediately before and 24 h after antigen challenge, the marked area was measured again.
smiles,measurement,setting,value
"CC(=O)N[C@H]1C(O)O[C@H](COS(=O)(=O)O)[C@H](O)[C@@H]1O[C@@H]1OC(C(=O)O)=C[C@H](O)[C@H]1O (stereo partly drawn) [CSPG-DS, 2-acetoamido-2-deoxy-3-O-(β-D-gluco-4-enepyranosyluronic acid)-6-O-sulfo-D-galactose]",LPS-induced suppression of IGF-I expression,"IGF-1; microglia pre-incubated with CSPG-DS (25 or 50 μg/ml) 1 h, then LPS 24 h",attenuated
same,IGF-1 expression by microglia,IGF-1; mouse primary microglia,high levels
same,viable RGCs per mm^2,"[1]; eye drops 20 μg/ml (5 x 50 μl), every other day between day 7 and day 14, counted at three weeks, n=6",1924±191 RGCs per mm^2
same,viable RGCs per mm^2,"[1]; intravenous, every other day between day 7 and day 14 after first laser session, n=5",2063±215 RGCs per mm^2
same,NF-κB levels in nuclei,NF-κB,reduction
same,reduction in DTH response,[2],40%
